Laboratory results as given in ChEMBL document CHEMBL5154799, “Discovery of a Novel Stilbene Derivative as a Microtubule Targeting Agent Capable of Inducing Cell Ferroptosis” (J Med Chem, 2022).
Active and inactive are the calls of the source. No cut-off for these calls is given here.

Key:
[1] = Resistance index, ratio of IC50 for antiproliferative activity against human vincristine-resistant HCT-8/VCR cells to IC50 for antiproliferative activity against HCT-8 cells; type: functional
LoVo = experiment: Antiproliferative activity against human LoVo cells assessed as inhibition of cell proliferation incubated for 2 hrs by CCK-8 assay; type: functional, cell-based; conditions: DDE = dose-dependent effect
[2] = Cytotoxicity against human L02 cells assessed as reduction in cell viability; type: toxicity, cell-based
Tubulin (Homo sapiens) [3] = molecular target: T1, Tubulin (Homo sapiens) (UniProt P68371+Q9H4B7+P0DPH7+P68366+Q13509+Q71U36+P04350+Q3ZCM7+P07437+P68363+Q9BQE3+Q6PEY2+Q13885+Q9BVA1+Q9BUF5); experiment: Inhibition of [3H]colchicine binding to tubulin (unknown origin) at 2.5 uM by competitive binding assay relative to control; type: protein-complex assay
Tubulin (Homo sapiens) [4] = molecular target: T1, Tubulin (Homo sapiens); experiment: Inhibition of [3H]colchicine binding to tubulin (unknown origin) at 10 uM by competitive binding assay relative to control; type: protein-complex assay
Tubulin (Homo sapiens) [5] = molecular target: T1, Tubulin (Homo sapiens); experiment: Induction of microtubule disruption in human A549 cells assessed as shrunken spindle shaped microtubule structure at 5 to 20 uM incubated for 12 hrs by immunofluorescence based laser scanning confocal microscopic analysis; type: cell-based; conditions: dose 5-20 µM
A549 [6] = experiment: Induction of ferroptosis in human A549 cells assessed as cell swelling incubated for 24 hrs by CCK-8 assay; type: functional, cell-based
A549 [7] = experiment: Induction of apoptosis in human A549 cells assessed as cell viability pretreated with ferroptosis inhibitor ferrostatin-1 for 24 hrs followed by incubation with compound at 20 nM and measured after 48 hrs by CCK-8 assay; type: functional, cell-based
A549 [8] = experiment: Induction of cell death in human A549 cells assessed as increased mitochondrial membrane density at 10 nM for 12 hrs by TEM analysis; type: functional, cell-based
[9] = AUC (0 to t) in ICR mouse at 10 mg/kg, po single administration measured for 24 hrs post treatment by LC-MS/MS analysis; type: ADME, organism-based; conditions: in vivo
[10] = Half life in ICR mouse at 1 mg/kg, iv single administration measured for 24 hrs post treatment by LC-MS/MS analysis; type: ADME, organism-based; conditions: in vivo

## C=C(c1cc(OC)c(OC)c(OC)c1)c1ccc(OC)c(O)c1NC(=O)CO
[1]
  Ratio IC50: 1.75
LoVo
  Activity: Dde
[2]
  IC50: 1450 nM
Tubulin (Homo sapiens) [3]
  inhibition: 64.8%
Tubulin (Homo sapiens) [4]
  inhibition: 85%
Tubulin (Homo sapiens) [5]
  Activity: Active
A549 [6]
  Activity: Active
A549 [7]
  Activity: Active
A549 [8]
  Activity: Active
[9]
  AUCt: 2432.04 h/ng/mL
[10]
  half-life: 37.2 min
